Measurements reported in ChEMBL document CHEMBL3244162, “Synthesis and biological evaluation of tetramisole analogues as inhibitors of alkaline phosphatase of the 6-thiopurine-resistant tumor sarcoma 180/TG” (J Med Chem, 1979).
pIC50: −log10 of the molar value. Counter-ions that a name gives are not always drawn. Activity calls are given as the source filed them. The calls are words filed in the database; no cut-off is given here.

Experiments:
Format in all cases: cell-based
[1] = species: Mus musculus; test: Inhibition of alkaline phosphatase in mouse 180/TG cells assessed as p-nitrophenyl phosphate hydrolysis up to 5 mM by spectrophotometry
[2] = species: Mus musculus; test: Inhibition of alkaline phosphatase in mouse 180/TG cells assessed as p-nitrophenyl phosphate hydrolysis up to 1 mM by spectrophotometry
[3] = Inhibition of alkaline phosphatase in mouse 180/TG cells assessed as p-nitrophenyl phosphate hydrolysis by spectrophotometry; conditions: read-out: I50

Row | SMILES | inhibition [1] | inhibition [2] | pIC50 [3]
1 | c1ccc(C2CN3CCNC3=N2)cc1 (stereo not given) | 15% | inactive | 
2 | c1ccc(C2CN3CCSC3=N2)cc1 (stereo not given) [TETRAMISOLE HYDROCHLORIDE] |  |  | 4.35
3 | c1ccc(C2CN3CCOC3=N2)cc1 (stereo not given) |  |  | 3.68
4 | c1ccc(-c2cn3c(n2)OCC3)cc1 |  | inactive | 
